According to patent publication US11117947B2, “Double-acylated GLP-1 derivatives” (Novo Nordisk A/S, priority 2011, dated 2021):
Read-outs that look alike come from different tables or passages of the source. Numbered stars: 1 amine (or outer) side, 2 acyl side, 3 side chain; on linkers, the order of the positions; unused ones are H or OH. Square brackets hold non-standard residues; d marks the D form. Side chains are listed from the residue outwards. Peptide text beside a SMILES is read from it. * marks the point of attachment. γGlu = O=C(O)[C@H](CCC(=O)[*:2])N[*:1]; C14 diacid = O=C(O)CCCCCCCCCCCCC(=O)*; AEEA = NCCOCCOCC(=O)O; Aib = CC(C)(N)C(=O)O

What was measured:
human GLP-1 receptor [1] = biological target: T1, human GLP-1 receptor (Homo sapiens, UniProt P43220); experiment: In vitro potency: stimulation of cAMP formation (AlphaScreen cAMP Assay) in membranes expressing the human GLP-1 receptor; assay type: biochemical; settings: membranes from BHK467-12A (tk-ts13) expressing the human GLP-1 receptor
T1 construct: expressed in transfected cells; membranes
T1 sequence (P43220 24-463): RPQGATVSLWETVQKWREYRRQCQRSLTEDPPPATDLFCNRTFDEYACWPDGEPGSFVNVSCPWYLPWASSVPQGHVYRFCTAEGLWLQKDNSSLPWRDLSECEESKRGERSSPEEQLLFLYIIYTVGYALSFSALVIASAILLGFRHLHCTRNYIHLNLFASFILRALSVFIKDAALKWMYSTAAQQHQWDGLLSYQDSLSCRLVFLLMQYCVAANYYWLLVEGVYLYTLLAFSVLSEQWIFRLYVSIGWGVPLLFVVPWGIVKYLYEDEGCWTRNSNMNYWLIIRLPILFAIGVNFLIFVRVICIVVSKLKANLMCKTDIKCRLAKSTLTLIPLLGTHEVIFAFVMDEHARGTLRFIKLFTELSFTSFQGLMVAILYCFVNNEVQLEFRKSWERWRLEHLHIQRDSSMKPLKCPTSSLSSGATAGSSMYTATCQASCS
Method: Purified plasma membranes from a stable transfected cell line, BHK467-12A (tk-ts13), expressing the human GLP-1 receptor were stimulated with the GLP-1 analogue or derivative in question, and the potency of cAMP production was measured using the AlphaScreen™ cAMP Assay Kit from Perkin Elmer Life Sciences. The basic principle of the AlphaScreen Assay is a competition between endogenous cAMP and exogenously added biotin-cAMP. The capture of cAMP is achieved by using a specific antibody conjugated to acceptor beads.
A stable transfected cell line and a high expressing clone were selected for screening. The cells were grown at 5% CO2 in DMEM, 5% FCS, 1% Pen/Strep (Penicillin/Streptomycin) and 0.5 mg/ml of the selection marker G418.
Cells at approximately 80% confluence were washed 2× with PBS and harvested with Versene (aqueous solution of the tetrasodium salt of ethylenediaminetetraacetic acid), centrifuged 5 min at 1000 rpm and the supernatant removed. The additional steps were all performed on ice. The cell pellet was homogenised by the Ultrathurax for 20-30 s in 10 ml of Buffer 1 (20 mM Na-HEPES, 10 mM EDTA, pH=7.4), centrifuged 15 min at 20,000 rpm and the pellet resuspended in 10 ml of Buffer 2 (20 mM Na-HEPES, 0.1 mM EDTA, pH=7.4). The suspension was homogenised for 20-30 s and centrifuged 15 min at 20,000 rpm. Suspension in Buffer 2, homogenisation and centrifugation was repeated once and the membranes were resuspended in Buffer 2. The protein concentration was determined and the membranes stored at −80° C. until use.
The final volume per well was 50 μl.
AlphaScreen cAMP Assay Kit from Perkin Elmer Life Sciences (cat. No: 6760625M); containing Anti-cAMP Acceptor beads (10 U/μl), Streptavidin Donor beads (10 U/μl) and Biotinylated-cAMP (133 U/μl).
cAMP standard (dilution factor in assay=5): cAMP Solution: 5 μL of a 5 mM cAMP-stock+495 μL AlphaScreen Buffer.
Membranes were prepared from hGLP-1/BHK 467-12A cells with a concentration of 6 μg/well corresponding to 0.6 mg/ml (the amount of membranes used pr. well may vary)
“No membranes”: Acceptor Beads (15 μg/ml final) in AlphaScreen buffer
“6 μg/well membranes”: membranes+Acceptor Beads (15 μg/ml final) in AlphaScreen buffer
An aliquot (10 μl) of “No membranes” was added to the cAMP standard (per well in duplicate wells) and the positive and negative controls
An aliquot (10 μl) of “6 μg/well membranes” was added to GLP-1 and analogues (per well in duplicate or triplicate wells)
Pos. Control: 10 μl “no membranes”+10 μl AlphaScreen Buffer
Neg. Control: 10 μl “no membranes”+10 μl cAMP Stock Solution (50 μM)
1. Make the AlphaScreen Buffer.
2. Dissolve and dilute the GLP-1/Analogues/cAMP standard in AlphaScreen Buffer.
4. Add the cAMP/GLP-1/Analogues to the plate: 10 μl per well.
5. Prepare membrane/Acceptor Beads solution and add this to the plates: 10 μl per well.
6. Add the Donor Beads: 30 μl per well.

human GLP-1 receptor [2] = biological target: T1, human GLP-1 receptor; experiment: GLP-1 receptor binding: displacement of 125I-GLP-1 (SPA) at low and high albumin
Outline: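 Membranes from hamster cells stably transfected with the receptor, with WGA SPA beads and 0.06 nM [^125I]-GLP-1(7-36)NH2, incubated 120 min at 30 °C with shaking.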

CC[C@H](C)[C@H](NC(=O)[C@H](Cc1ccccc1)NC(=O)[C@H](CCCCNC(=O)COCCOCCNC(=O)COCCOCCNC(=O)CC[C@H](NC(=O)CCCCCCCCCCCCC(=O)O)C(=O)O)NC(=O)[C@H](CCCNC(=N)N)NC(=O)[C@@H](NC(=O)[C@H](CCCCNC(=O)COCCOCCNC(=O)COCCOCCNC(=O)CC[C@H](NC(=O)CCCCCCCCCCCCC(=O)O)C(=O)O)NC(=O)[C@H](CCC(N)=O)NC(=O)[C@H](CCC(=O)O)NC(=O)[C@H](CCC(=O)O)NC(=O)[C@H](CC(C)C)NC(=O)[C@H](Cc1ccc(O)cc1)NC(=O)[C@H](CO)NC(=O)[C@H](CO)NC(=O)[C@@H](NC(=O)[C@H](CC(=O)O)NC(=O)[C@H](CO)NC(=O)[C@@H](NC(=O)[C@H](Cc1ccccc1)NC(=O)[C@@H](NC(=O)CNC(=O)[C@H](CCC(=O)O)NC(=O)C(C)(C)NC(=O)[C@@H](N)Cc1c[nH]cn1)[C@@H](C)O)[C@@H](C)O)C(C)C)C(C)C)C(=O)N[C@@H](C)C(=O)N[C@@H](Cc1c[nH]cn1)C(=O)N[C@@H](CC(C)C)C(=O)N[C@H](C(=O)N[C@@H](CCC(N)=O)C(=O)NCC(=O)N[C@@H](CCCNC(=N)N)C(=O)NCC(=O)O)C(C)C [Example 29, N^ε24-[2-[2-[2-[[2-[2-[2-[[(4S)-4-carboxy-4-(13-carboxytridecanoylamino)butanoyl]amino]ethoxy]ethoxy]acetyl]amino]ethoxy]ethoxy]acetyl], N^ε27-[2-[2-[2-[[2-[2-[2-[[(4S)-4-carboxy-4-(13-carboxytridecanoylamino)butanoyl]amino]ethoxy]ethoxy]acetyl]amino]ethoxy]ethoxy]acetyl]-[Aib^8,Glu^22,Lys^24,Val^25,Arg^26,Lys^27,His^31,Gln^34]-GLP-1-(7-37)-peptide] (H-H[Aib]EGTFTSDVSSYLEEQK([AEEA-AEEA-γGlu-C14 diacid])VRK([AEEA-AEEA-γGlu-C14 diacid])FIAHLVQGRG-OH)
EC50 (human GLP-1 receptor [1]): 0.04 nM | Ratio [(IC50/nM) high HSA]/[(IC50/nM) low HSA] (human GLP-1 receptor [2]; 2.0% HSA vs 0.001% HSA): 92 | IC50 (human GLP-1 receptor [2]; high albumin, 2.0% HSA, read-out: IC50/nM (high HSA)): 363 nM | IC50 (human GLP-1 receptor [2]; low albumin, 0.001% HSA, read-out: IC50/nM (low HSA)): 3.95 nM
